The values that follow come from US12097262B2, “mTORC1 inhibitors” (THE REGENTS OF THE UNIVERSITY OF CALIFORNIA, priority 2014, dated 2024).

One data set has as its system SNU-398. The data set is described as follows: Cell viability assay (CellTiter-Glo), SNU-398. The conditions noted are these: Homo sapiens; for EC50: 72 h after compound treatment. Type of data set: cell-based, human. A general note: ATP-based viability assays read luminescence as a measure of living cells.
A further data set relates to 786-O. The data set is described as follows: Cell viability assay (CellTiter-Glo), 786-O. Type of data set: cell-based, human. The conditions noted are these: Homo sapiens; for EC50: 786-0, 72 h after compound treatment.
Another data set relates to HCT-15. The data set is described as follows: Cell viability assay (CellTiter-Glo), HCT-15. Type of data set: cell-based, human. The conditions noted are these: Homo sapiens; for EC50: 72 h after compound treatment.
In the next data set the test system is SNU-182. In words: Cell viability assay (CellTiter-Glo), SNU-182. It counts as cell-based, human. The conditions noted are these: Homo sapiens; for EC50: 72 h after compound treatment.
Data set [1] concerns mTORC1 and mTORC2 downstream signaling (pS6, p4E-BP1, pAkt S473). In words: Downstream signaling of mTOR by immunoblotting, dose dependence, HCT-15 and SNU-449 cells. Type of data set: cell-based, human. The conditions noted are these: immunoblot at 3 h after compound treatment. For orientation: Immunoblotting shows a protein as a band on a membrane.
Procedure: Downstream signaling of mTOR was tested using an immunoblotting method at 3 h after compound treatment.
For data set [2], the system named is mTORC1 and mTORC2 signaling (pS6, p4E-BP1, pAkt S473). In words: Time-course effects on mTORC1 and mTORC2 signaling in SNU-449. Type of data set: cell-based, human. The conditions noted are these: 0.33-24 h. As for the experimental part: Cellular Signaling Effects of Class mTOR Inhibitors. Cells were seeded in 60 mm cell culture dishes and incubated 1-2 days until 70-90% confluency. Cells were treated with compound solution in DMSO (1000×) and incubated at 37° C. in a 5% CO2 humidified incubator for a given length of time. Whole cell lysates were prepared using RIPA buffer (R^3792) (TEKnova, Hollister, CA USA) with a phosphatase inhibitor cocktail tablet PhosStop and a protease inhibitor cocktail tablet cOmplete Mini (Roche Diagnostics GmbH, Mannheim, Germany). Cell lysates (based on a certain amount of protein determined by Pierce BCA Protein Assay Kit (PI-23225) (Thermo Fisher Scientific Inc., Waltham, MA USA)) were electrophoresed using a Criterion Tris-HCl gel 4-20% (Bio-Rad Laboratories, Hercules, CA USA) and transferred to a nitrocellulose membrane (162-0115) (Bio-Rad Laboratories, Hercules, CA USA). After incubation for more than 1 h with a blocking buffer at room temperature, membranes were labeled with primary antibodies by overnight incubation at 4° C., followed by 1 hour incubation with horseradish peroxidase-conjugated (HRP-conjugated) secondary antibodies at room temperature. The following antibodies were used for immunoblot: phospho-Akt (S473) (#9271), phospho-Akt (T308) (#2965), total-Akt (#9272), phospho-S6 (Ser240/Ser244) (#2215L), S6 ribosomal protein (#2217), phospho-4E-BP1 (T37/T46) (#2855), total 4E-BP1 (#9644) (Cell Signaling Technology, Inc., Danvers, MA USA), FKBP12 (sc-28814) mouse β-actin (sc-8432) (Santa Cruz Biotechnology, Inc., Dallas, Texas USA), anti-rabbit IgG conjugated with horseradish peroxidase (HRP) (#7074), and anti-mouse IgG conjugated with HRP (#7076) (Cell Signaling Technology, Inc., Danvers, MA USA). Nitrocellulose membranes were exposed with SuperSignal® West Pico Chemiluminescent Substrate or Femto Maximum Sensitivity Substrate (Thermo Fisher Scientific Inc., Waltham, MA USA) and signals were recorded on a CL-Xposure film (Thermo Fisher Scientific Inc., Waltham, MA USA).

The subject of data set [3] is phospho-4E-BP1, pS6, phospho-S473 of Akt in 786-O xenograft tumor. The data set is described as follows: Pharmacodynamic study in human renal cancer 786-O xenograft tumor in mice. Type of data set: in vivo. The procedure: Pharmacodynamic studies of M1071 in human renal cancer 786-O xenograft tumor in mice. […] Tumor samples were collected at 3 h after drug administration. For the MWF group, M-1071 was administered once daily every other day. At 4 h after the last administration, tumor samples were collected. After the freezing tumor samples, they were homogenized and treated with RIPA buffer containing phosphatase inhibitor and protease inhibitor. The following western blotting analysis were conducted in a similar way to abovementioned method.
In general terms: In xenograft studies the graft and the host belong to different species.

In data set [4] the test system is TORC1 and TORC2 outputs (p4E-BP1, pS6). In words: Drug washout experiment in SNU-449 cells. Type of data set: cell-based, human. The conditions noted are these: 30 nM for 3 h, then washout. The procedure: Cellular Signaling Effects of Class mTOR Inhibitors. Cells were seeded in 60 mm cell culture dishes and incubated 1-2 days until 70-90% confluency. Cells were treated with compound solution in DMSO (1000×) and incubated at 37° C. in a 5% CO2 humidified incubator for a given length of time. […] After incubation for more than 1 h with a blocking buffer at room temperature, membranes were labeled with primary antibodies by overnight incubation at 4° C., followed by 1 hour incubation with horseradish peroxidase-conjugated (HRP-conjugated) secondary antibodies at room temperature. […] Nitrocellulose membranes were exposed with SuperSignal® West Pico Chemiluminescent Substrate or Femto Maximum Sensitivity Substrate (Thermo Fisher Scientific Inc., Waltham, MA USA) and signals were recorded on a CL-Xposure film (Thermo Fisher Scientific Inc., Waltham, MA USA).
Drug Washout Experiment. SNU-449 cells were treated with 30 nM of compounds for 3 h. The medium was aspirated out and cells were washed with fresh 10% FBS in RPMI1640 medium. Then, cells were incubated with fresh 10% FBS in RPMI1640 medium at 37° C. for described time period.

For the next data set, the system named is mTORC1 and mTORC2. The data set is described as follows: Western blot analysis of mTORC1/mTORC2 inhibition in MCF-7 cells. Type of data set: cell-based. The conditions noted are these: 4 hours, western blot (FIG. 13A). The procedure:
FIGS. 13A-13B. FIG. 13A: MCF-7 cells were treated for 4 hours with E1035 and M1071 before harvesting. FIG. 13B: SNU-449 cells were treated with 3 hours with E1010 before harvesting. Cells were lysed and blotted for the indicated proteins. M1071 has the narrowest concentration range between mTORC1 and mTORC2 inhibition. The concentration range between mTORC1 and mTORC2 inhibition widens for E1035.
Cell Culture and Western Blot Analysis. Cells were grown in 6-well plates and treated with inhibitor at the indicated concentrations or with vehicle (0.1% DMSO). Treated cells were lysed, and lysates were resolved by SDS-PAGE, transferred to nitrocellulose and blotted. All antibodies were purchased from Cell Signaling Technology.

Another data set deals with MCF-7 cells. In words: Cell proliferation assay (CellTiter-Glo, 72 h), MCF-7 cells. The conditions noted are these: 72 hours (FIG. 14B). Type of data set: cell-based. As for the experimental part:
FIGS. 14A-14B. FIG. 14A: 786-O cells were treated for 72 hours with the indicated drugs before cell viability was measured. […] FIG. 14B: MCF-7 cells were treated for 72 hours with the indicated drugs before cell viability was measured.
Cell proliferation assays. Cells grown in 96-well plates were treated with inhibitor in triplicate or vehicle (0.1% DMSO). After 72 h, cell viability was assessed with the […]-GLO® Luminescent Cell Viability Assay (Promega). Cell proliferation curves were generated using Prism.

A short description of data set [5]: Effect on blood glucose level in mice. The conditions noted are these: mice (n=3), intraperitoneal, 1, 3 mg/kg.
Source text: Effect on blood glucose level. […] Blood glucose levels (mg/dL) were monitored.
The test system of the next data set is SNU-449. In words: Cell viability assay (CellTiter-Glo), SNU-449. The conditions noted are these: Homo sapiens; for EC50: SNU-449, 72 h, read-out: EC50 (nM) SNU-449.
The conditions of data set [6]: clinical trials; cited from earlier work.

The term EC50 denotes the concentration at which the effect is half-maximal. The inhibition is the share of the control response that was lost under treatment.

Procedure for SNU-182: (§1) The cells were grown in appropriate medium (vender recommended) supplemented with 10% heat-inactivated fetal bovine serum (FBS), in tissue culture dishes placed in a humidified incubator maintained at 37° C. in an atmosphere of 5% CO2 and 95% air.
(§2) Cell viability assay. Cells were seeded in a 96-multiwell plate at 3000-4000 cells per well in medium containing FBS and cells were incubated at 37° C. overnight. After 18-20 h, compounds in 10×DMSO solution (n=3) were added to the cells and were incubated for additional 3 days in a humidified incubator in an atmosphere of 5% CO2 and 95% air. After treatment of Cell Titer-Glo® luminescent cell viability assay reagent (Promega Corporation, Madison, WI USA), the luminescence value was recorded using SpectraMax M5 Multi-Mode Microplate Readers (Molecular Devices, LLC, Sunnyvale, CA USA). Concentration response curves were generated on GraphPad Prism (GraphPad Software, La Jolla, CA USA) by calculating the decrease in luminescence values in compound-treated samples relative to the DMSO controls.
(§3) Anti-proliferative effects of compounds were evaluated in human colorectal cancer HCT-15 cells (mutation: KRAS, PIK3CA), human hepatocellular carcinoma SNU-449 (mutation: TP53, CDKN2A), SNU-398 (mutation: CTNNB 1), SNU-182 (mutation: TP53) and renal adenocarcinoma 786-O (mutation: VHL, PTEN, TP53, CDKN2A) in 72 h after compound treatment.
Procedure for SNU-398: as §1, §2, §3

Consider `CO[C@H]1C[C@@H]2CC[C@@H](C)[C@@](O)(O2)C(=O)C(=O)N2CCCC[C@H]2C(=O)O[C@H]([C@H](C)C[C@@H]2CC[C@@H](OCCOCc3cn(CCOCCOCCOCCOCCOCCOCCOCCOCCC(=O)NCCCCn4nc(-c5ccc6oc(N)nc6c5)c5c(N)ncnc54)nn3)[C@H](OC)C2)CC(=O)[C@H](C)/C=C(\C)[C@@H](O)[C@@H](OC)C(=O)[C@H](C)C[C@H](C)/C=C/C=C/C=C/1C` [Compound M-1071, 40-O-(2-((1-(32-(4-amino-3-(2-aminobenzo[d]oxazol-5-yl)-1H-pyrazolo[3,4-d]pyrimidin-1-yl)-27-oxo-3,6,9,12,15,18,21,24-octaoxa-28-azadotriacontyl)-1H-1,2,3-triazol-4-yl)methoxy)ethyl)-rapamycin], for which the EC50 in the data set on SNU-398, with 786-O, in the data set on HCT-15, with SNU-182 and in the data set on SNU-449 was less than 10 nM throughout. Also, the inhibition at 10 µM in the data set on SNU-398 (read-out: % inhibition at 10 μM SNU-398, 10 μM) was in the range of 50 to 100%; with 786-O (786-0, read-out: % inhibition at 10 μM 786-O, 10 μM), 25 to 50%; in the data set on HCT-15 (read-out: % inhibition at 10 μM HCT-15, 10 μM), 50 to 100%; in the data set with SNU-182 (read-out: % inhibition at 10 μM SNU-182, 10 μM), 25 to 50%; with SNU-449 (SNU-449, read-out: % inhibition at 10 μM SNU-449), 25 to 50%. Further, the “mTORC1/2 downstream inhibition (pS6, p4E-BP1 and pAkt S473)” value in data set [1] was “stronger inhibition of mTORC1 signaling (pS6 and p4E-BP1) compared to mTORC2 downstream Akt S473 phosphorylation”. For the same compound, in [1], the p4E-BP1 inhibition result is on record as “complete p4E-BP1 inhibition at drug concentrations in which pAkt S473 is not inhibited”. The “p4E-BP1 inhibition, time course” value in data set [2] was “continuous complete inhibition of TORC1 outputs within 3-24 h”. Also, the “phosphorylation of Akt S473, time course” value in data set [2] was “transient feedback activation on Akt S473 at 1 and 3 h, and then a slight inhibition was observed at 24 h”. In addition, the “inhibition of pS6 and p4EBP-1 in tumor” value in data set [3] (5 mg/kg) is given as “complete inhibition”. In addition, the “inhibition of phospho-S473 of Akt in tumor” value in data set [3] (highest dosing of 5 mg/kg) is reported as “slight”. The “Phosphorylation of S6 in tumor” value in data set [3] (intraperitoneal) was “inhibited”. Moreover, in data set [3] (intraperitoneal, tumor collected 3 h after administration), the “inhibition against phospho-4E-BP1 in tumor” value is “dose dependent inhibition”. Also, the “sustained inhibitory effect on p4E-BP1 after washout” value in data set [4] was “at least 2 h”. Besides, the “sustained inhibitory effect on pS6 after washout” value in data set [4] was “at least 4 h”. The “concentration range between mTORC1 and mTORC2 inhibition” value in the data set on mTORC1 and mTORC2 was “narrowest”. Also, in the data set with mTORC1 and mTORC2, the mTORC2 inhibition entry is listed as “also inhibits mTORC2”. Besides, the “effects on cell proliferation” value in the data set with MCF-7 cells is reported as “potent effects on cell proliferation”. Besides, the blood glucose level result in data set [5] was “no increase in blood glucose levels”.

With `CC(C)n1nc(-c2ccc3oc(N)nc3c2)c2c(N)ncnc21` [MLN0128, reference compound], the EC50 in the data set on SNU-398 lay within 10 to 50 nM; with 786-O, 50 to 100 nM; with HCT-15, 50 to 100 nM; with SNU-182 it was 50 to 100 nM; in the data set with SNU-449 it was 10 to 50 nM. Moreover, the “mTORC1/2 downstream inhibition (pS6, p4E-BP1 and pAkt S473)” value in data set [1] was “pan-mTORC1/2 downstream inhibition”. Besides, the “p4E-BP1 inhibition, time course” value in data set [2] was “completely inhibited p4E-BP1 in early onset (0.33-1 h) and then partial phosphorylation of 4E-BP1 was observed after 3 h to 24 h”. Further, the “phosphorylation of Akt S473, time course” value in [2] is listed as “blocked phosphorylation of pAkt S473 continuously during 0.33-24 h”. In addition, the “time until inhibitory effects disappeared after washout” value in [4] is no more than 1 h. For the same compound, in data set [6], the dose limiting toxicity result is “Grade ≥3 hyperglycemia”.
